# Measurements published in patent US9738634B2, “Heterocyclic amide compound and herbicide” (SYNGENTA PARTICIPATIONS AG, priority 2013, dated 2017).
# Columns and labels:
# Assay type in all cases: in vivo
# Details in all cases: treatment dosage 320 g/ha
# barnyard grass [1] = experiment: Test Example 1: weedkilling efficacy, preemergent weed treatment in the submerged state; A: barnyard grass
# Summary of the method: (§1)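 Alluvial soil in Wagner pots flooded to 4 cm; barnyard grass, bulrush and oval-leafed pondweed seeds sown, then 2.5-leaf rice seedlings transplanted. Same day, emulsified compound diluted in water to set g/ha dosages and applied to water surface; greenhouse 25–30 °C, effect scored by criteria after 3 weeks.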
# catchweed [2] = experiment: Test Example 3: weedkilling efficacy through soil treatment; O: catchweed
# Summary of the method: (§2)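 Crop and weed responses were judged three weeks after a uniform surface spray of the water-diluted emulsion at the given g/ha rate. Seeds sat beneath about 1.5 cm of sterilized diluvial soil, and boxes stood in a greenhouse at 25 to 30° C.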
# wheat [3] = experiment: Test Example 3: soil treatment, effect on crop; e: wheat
# Summary of the method: as §2
# black-grass [4] = experiment: Test Example 4: weedkilling efficacy by foliar treatment; H: black-grass
# Summary of the method: (§3)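 Seeds are spot-sown into sterilized diluvial soil and covered with about 1.5 cm of soil. After 14 days' greenhouse growth at 25 to 30° C, plants are sprayed on stems and leaves with diluted emulsion at the stated g/ha rate, then scored at 3 weeks.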
# Italian ryegrass [5] = experiment: Test Example 4: weedkilling efficacy by foliar treatment; I: Italian ryegrass
# Summary of the method: as §3
# common wind-grass [6] = experiment: Test Example 3: weedkilling efficacy through soil treatment; J: common wind-grass
# Summary of the method: as §2
# directly sown rice [7] = experiment: Test Example 3: soil treatment, effect on crop; b: directly sown rice
# Summary of the method: as §2
# Indian mallow [8] = experiment: Test Example 4: weedkilling efficacy by foliar treatment; K: Indian mallow
# Summary of the method: as §3
# wild oat [9] = experiment: Test Example 3: weedkilling efficacy through soil treatment; G: wild oat
# Summary of the method: as §2
# barnyard grass [10] = experiment: Test Example 2: weedkilling efficacy, growth period weed treatment in the submerged state; A: barnyard grass
# Summary of the method: (§4)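 First, alluvial soil in pots is flooded to 4 cm and mixed seed is sown. Next, plants grow in a greenhouse at 25 to 30° C until the 1-2 leaf stage. Then diluted emulsion is applied onto the water surface at the given g/ha rate, and injury is assessed after 3 weeks.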
# beet [11] = experiment: Test Example 4: foliar treatment, effect on crop; f: beet
# Summary of the method: as §3
# bulrush [12] = experiment: Test Example 2: weedkilling efficacy, growth period weed treatment in the submerged state; B: bulrush
# Summary of the method: as §4
# barnyard grass [13] = experiment: Test Example 3: weedkilling efficacy through soil treatment; F: barnyard grass
# Summary of the method: as §2
# redroot pigweed [14] = experiment: Test Example 4: weedkilling efficacy by foliar treatment; L: redroot pigweed
# Summary of the method: as §3
# oval-leafed pondweed [15] = experiment: Test Example 2: weedkilling efficacy, growth period weed treatment in the submerged state; C: oval-leafed pondweed
# Summary of the method: as §4
# soybean [16] = experiment: Test Example 4: foliar treatment, effect on crop; d: soybean
# Summary of the method: as §3
# transplanted rice = experiment: Test Example 1: preemergent weed treatment in the submerged state, effect on crop; a: transplanted rice
# Summary of the method: as §1
# catchweed [17] = experiment: Test Example 4: weedkilling efficacy by foliar treatment; O: catchweed
# Summary of the method: as §3
# directly sown rice [18] = experiment: Test Example 4: foliar treatment, effect on crop; b: directly sown rice
# Summary of the method: as §3
# common wind-grass [19] = experiment: Test Example 4: weedkilling efficacy by foliar treatment; J: common wind-grass
# Summary of the method: as §3
# soybean [20] = experiment: Test Example 3: soil treatment, effect on crop; d: soybean
# Summary of the method: as §2
# rapeseed [21] = experiment: Test Example 3: soil treatment, effect on crop; g: rapeseed
# Summary of the method: as §2
# crabgrass [22] = experiment: Test Example 4: weedkilling efficacy by foliar treatment; D: crabgrass
# Summary of the method: as §3
# barnyard grass [23] = experiment: Test Example 4: weedkilling efficacy by foliar treatment; F: barnyard grass
# Description: (§5) Testing of Weedkilling Efficacy by Foliar Treatment
# (§6) Sterilized diluvial soil was introduced into 21 cm long, 13 cm wide, 7 cm deep plastic boxes, and seeds of crabgrass, green foxtail, barnyard grass, wild oat, black-grass, Italian ryegrass, common wind-grass, Indian mallow, redroot pigweed, fig-leafed goosefoot, chickweed, catchweed, birds-eye speedwell, corn, soybean, rice, wheat, beet and rapeseed were each spot-sown, and covered with about 1.5 cm of soil, then the plants were grown in a greenhouse at 25 to 30° C.
# (§7) After they had grown for 14 days, emulsions of compounds of the present invention prepared according to compounding example 2 were diluted with water to give the specified dosages, and applied uniformly onto the stem and leaf parts with a small sprayer. 3 weeks after the pesticide treatment the effect on each type of plant was investigated on the basis of the assessment criteria of test example 1.
# (§8) A: barnyard grass, B: bulrush, C: oval-leafed pondweed, D: crabgrass, E: green foxtail, F: barnyard grass, G: wild oat, H: black-grass, I: Italian ryegrass, J: common wind-grass, K: Indian mallow, L: redroot pigweed, M: fig-leafed goosefoot, N: chickweed, O: catchweed, p: birds-eye speedwell, a: transplanted rice, b: directly sown rice, c: corn, d: soybean, e: wheat, f: beet, g: rapeseed
# (§9) Further, pesticide dosage (g/ha) indicates the concentration regulated such that treatment was with only the stated number of grams (g), when calculated per hectare (ha).
# corn [24] = experiment: Test Example 4: foliar treatment, effect on crop; c: corn
# Summary of the method: as §3
# oval-leafed pondweed [25] = experiment: Test Example 1: weedkilling efficacy, preemergent weed treatment in the submerged state; C: oval-leafed pondweed
# Summary of the method: as §1
# corn [26] = experiment: Test Example 3: soil treatment, effect on crop; c: corn
# Summary of the method: as §2
# wheat [27] = experiment: Test Example 4: foliar treatment, effect on crop; e: wheat
# Summary of the method: as §3
# green foxtail [28] = experiment: Test Example 4: weedkilling efficacy by foliar treatment; E: green foxtail
# Summary of the method: as §3
# birds-eye speedwell = experiment: Test Example 3: weedkilling efficacy through soil treatment; p: birds-eye speedwell
# Summary of the method: as §2
# green foxtail [29] = experiment: Test Example 3: weedkilling efficacy through soil treatment; E: green foxtail
# Summary of the method: as §2
# wild oat [30] = experiment: Test Example 4: weedkilling efficacy by foliar treatment; G: wild oat
# Summary of the method: as §3
# bulrush [31] = experiment: Test Example 1: weedkilling efficacy, preemergent weed treatment in the submerged state; B: bulrush
# Summary of the method: as §1
# chickweed = experiment: Test Example 4: weedkilling efficacy by foliar treatment; N: chickweed
# Summary of the method: as §3
# redroot pigweed [32] = experiment: Test Example 3: weedkilling efficacy through soil treatment; L: redroot pigweed
# Summary of the method: as §2
# rapeseed [33] = experiment: Test Example 4: foliar treatment, effect on crop; g: rapeseed
# Description: as §5, §6, §7, §8, §9
# Indian mallow [34] = experiment: Test Example 3: weedkilling efficacy through soil treatment; K: Indian mallow
# Summary of the method: as §2
# crabgrass [35] = experiment: Test Example 3: weedkilling efficacy through soil treatment; D: crabgrass
# Summary of the method: as §2
# fig-leafed goosefoot = experiment: Test Example 4: weedkilling efficacy by foliar treatment; M: fig-leafed goosefoot
# Summary of the method: as §3
# black-grass [36] = experiment: Test Example 3: weedkilling efficacy through soil treatment; H: black-grass
# Summary of the method: as §2
# beet [37] = experiment: Test Example 3: soil treatment, effect on crop; f: beet
# Summary of the method: as §2
# Italian ryegrass [38] = experiment: Test Example 3: weedkilling efficacy through soil treatment; I: Italian ryegrass
# Summary of the method: as §2
structure (smiles),measurement,setting,value
CC1=C(c2ccccc2)C(=O)N(C(C)(C)C(=O)Nc2cc(Br)cc(F)n2)CO1 [B-2-35],A (barnyard grass) weedkilling efficacy grade,barnyard grass [1],"5 (weed kill ratio 90% or more, (practically complete withering))"
same,O (catchweed) weedkilling efficacy grade,catchweed [2],0 (weed kill ratio 5% or less (practically no effect))
same,e (wheat) effect on crop grade,wheat [3],"1 (weed kill ratio 5% or more, less than 20%)"
same,H (black-grass) weedkilling efficacy grade,black-grass [4],"4 (weed kill ratio 70% or more, less than 90%)"
same,I (Italian ryegrass) weedkilling efficacy grade,Italian ryegrass [5],"4 (weed kill ratio 70% or more, less than 90%)"
same,J (common wind-grass) weedkilling efficacy grade,common wind-grass [6],"5 (weed kill ratio 90% or more, (practically complete withering))"
same,b (directly sown rice) effect on crop grade,directly sown rice [7],"2 (weed kill ratio 20% or more, less than 40%)"
same,K (Indian mallow) weedkilling efficacy grade,Indian mallow [8],"3 (weed kill ratio 40% or more, less than 70%)"
same,G (wild oat) weedkilling efficacy grade,wild oat [9],"4 (weed kill ratio 70% or more, less than 90%)"
same,A (barnyard grass) weedkilling efficacy grade,barnyard grass [10],"5 (weed kill ratio 90% or more, (practically complete withering))"
same,f (beet) effect on crop grade,beet [11],"3 (weed kill ratio 40% or more, less than 70%)"
same,B (bulrush) weedkilling efficacy grade,bulrush [12],"5 (weed kill ratio 90% or more, (practically complete withering))"
same,F (barnyard grass) weedkilling efficacy grade,barnyard grass [13],"4 (weed kill ratio 70% or more, less than 90%)"
same,L (redroot pigweed) weedkilling efficacy grade,redroot pigweed [14],"3 (weed kill ratio 40% or more, less than 70%)"
same,C (oval-leafed pondweed) weedkilling efficacy grade,oval-leafed pondweed [15],"5 (weed kill ratio 90% or more, (practically complete withering))"
same,d (soybean) effect on crop grade,soybean [16],"4 (weed kill ratio 70% or more, less than 90%)"
same,a (transplanted rice) effect on crop grade,transplanted rice,0 (weed kill ratio 5% or less (practically no effect))
same,O (catchweed) weedkilling efficacy grade,catchweed [17],"5 (weed kill ratio 90% or more, (practically complete withering))"
same,b (directly sown rice) effect on crop grade,directly sown rice [18],"4 (weed kill ratio 70% or more, less than 90%)"
same,J (common wind-grass) weedkilling efficacy grade,common wind-grass [19],"4 (weed kill ratio 70% or more, less than 90%)"
same,d (soybean) effect on crop grade,soybean [20],0 (weed kill ratio 5% or less (practically no effect))
same,g (rapeseed) effect on crop grade,rapeseed [21],"4 (weed kill ratio 70% or more, less than 90%)"
same,D (crabgrass) weedkilling efficacy grade,crabgrass [22],"5 (weed kill ratio 90% or more, (practically complete withering))"
same,F (barnyard grass) weedkilling efficacy grade,barnyard grass [23],"5 (weed kill ratio 90% or more, (practically complete withering))"
same,c (corn) effect on crop grade,corn [24],"1 (weed kill ratio 5% or more, less than 20%)"
same,C (oval-leafed pondweed) weedkilling efficacy grade,oval-leafed pondweed [25],"5 (weed kill ratio 90% or more, (practically complete withering))"
same,c (corn) effect on crop grade,corn [26],"1 (weed kill ratio 5% or more, less than 20%)"
same,e (wheat) effect on crop grade,wheat [27],0 (weed kill ratio 5% or less (practically no effect))
same,E (green foxtail) weedkilling efficacy grade,green foxtail [28],"5 (weed kill ratio 90% or more, (practically complete withering))"
same,P (birds-eye speedwell) weedkilling efficacy grade,birds-eye speedwell,"4 (weed kill ratio 70% or more, less than 90%)"
same,E (green foxtail) weedkilling efficacy grade,green foxtail [29],"5 (weed kill ratio 90% or more, (practically complete withering))"
same,G (wild oat) weedkilling efficacy grade,wild oat [30],"2 (weed kill ratio 20% or more, less than 40%)"
same,B (bulrush) weedkilling efficacy grade,bulrush [31],"5 (weed kill ratio 90% or more, (practically complete withering))"
same,N (chickweed) weedkilling efficacy grade,chickweed,"3 (weed kill ratio 40% or more, less than 70%)"
same,L (redroot pigweed) weedkilling efficacy grade,redroot pigweed [32],"3 (weed kill ratio 40% or more, less than 70%)"
same,g (rapeseed) effect on crop grade,rapeseed [33],"4 (weed kill ratio 70% or more, less than 90%)"
same,K (Indian mallow) weedkilling efficacy grade,Indian mallow [34],"4 (weed kill ratio 70% or more, less than 90%)"
same,D (crabgrass) weedkilling efficacy grade,crabgrass [35],"5 (weed kill ratio 90% or more, (practically complete withering))"
same,M (fig-leafed goosefoot) weedkilling efficacy grade,fig-leafed goosefoot,"4 (weed kill ratio 70% or more, less than 90%)"
same,H (black-grass) weedkilling efficacy grade,black-grass [36],"5 (weed kill ratio 90% or more, (practically complete withering))"
same,f (beet) effect on crop grade,beet [37],"4 (weed kill ratio 70% or more, less than 90%)"
same,I (Italian ryegrass) weedkilling efficacy grade,Italian ryegrass [38],"5 (weed kill ratio 90% or more, (practically complete withering))"
